What was measured:
[1] = log P by HPLC on reversed-phase column (C 18), EEC Directive 79/831 Annex V.A8; type: physicochemical; conditions: HPLC on reversed-phase column (C 18), 55° C.; for LOGP_HCOOH: log P (HCOOH), acidic range at pH 2.7, 0.1% aqueous formic acid and acetonitrile; for LOGP_NEUTRAL: log P, neutral range
Protocol: Temperature: 55° C. […] Called log P (HCOOH) in the table. […] Called log P (neutral) in the table.

Phaedon cochleariae = Phaedon cochleariae spray test; type: in vivo; conditions: after 7 days, Chinese cabbage leaf discs
Protocol: Phaedon cochleariae—Spray Test
Solvent: 78.0 parts by weight of acetone • • 1.5 parts by weight of dimethylformamide
Emulsifier: alkylaryl polyglycol ether
To produce a suitable active ingredient formulation, 1 part by weight of active ingredient is dissolved with the specified parts by weight of solvent and made up with water containing an emulsifier concentration of 1000 ppm until the desired concentration is attained. To produce further test concentrations, the formulation is diluted with emulsifier-containing water.
Discs of Chinese cabbage leaves (Brassica pekinensis) are sprayed with an active ingredient formulation of the desired concentration and, after drying, populated with larvae of the mustard beetle (Phaedon cochleariae).
After 7 days, the efficacy in % is determined. 100% means that all the beetle larvae have been killed; 0% means that no beetle larvae have been killed.

Spodoptera frugiperda = Spodoptera frugiperda spray test; type: in vivo; conditions: after 7 days, maize leaf discs
How it was run: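 Maize leaf discs were sprayed with compound formulated in acetone/DMF and emulsifier-containing water, dried, then infested with Spodoptera frugiperda caterpillars. Percent kill was scored after 7 days, from 100% (all dead) to 0% (none dead).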

Row | SMILES | LOGP_HCOOH [1] | efficacy (beetle larvae killed) (Phaedon cochleariae; application rate 500 g/ha) [%] | efficacy (caterpillars killed) (Spodoptera frugiperda; application rate 100 g/ha) [%] | efficacy (caterpillars killed) (Spodoptera frugiperda; application rate 500 g/ha) [%] | efficacy (beetle larvae killed) (Phaedon cochleariae; application rate 100 g/ha) [%] | LOGP_NEUTRAL [1]
1 | CNC(=O)c1cc(-c2ccc(OC(F)(F)F)cc2)cc(NC(=O)C2CC2)n1 [Example I-127] | 3.02 | 100 | 83 | 100 | – | –
2 | CC(C)NC(=O)c1cc(-c2ccc(OC(F)(F)F)cc2)cc(NC(=O)C2CC2)n1 [Example I-129] | 3.84 | 100 | 100 | 100 | 100 | –
3 | CCCNC(=O)c1cc(-c2ccc(OC(F)(F)F)cc2)cc(NC(=O)C2CC2)n1 [Example I-132] | 3.78 | 100 | 100 | 100 | – | –
4 | O=C(NC1CCOC1=O)c1cc(-c2ccc(OC(F)(F)F)cc2)cc(NC(=O)C2CC2)n1 (stereo not shown) [Example I-135] | 3.11 | 83 | – | 100 | – | –
5 | O=C(NC1(C(F)(F)F)CC1)c1cc(-c2ccc(OC(F)(F)F)cc2)cc(NC(=O)C2CC2)n1 [Example I-137] | 4.17 | 100 | 100 | 100 | 100 | –
6 | COC1(NC(=O)c2cc(-c3ccc(OC(F)(F)F)cc3)cc(NC(=O)C3CC3)n2)CC1 [Example I-140] | 3.58 | 100 | 100 | 100 | 100 | –
7 | N#Cc1ccc(CNC(=O)c2cc(-c3ccc(CC(F)(F)F)cc3)cc(NC(=O)C3CC3)n2)cc1 [Example I-144] | 3.55 | 100 | 100 | 100 | 100 | 3.00
8 | O=C(N[C@H]1CC[C@@H](C(F)(F)F)CC1)c1cc(-c2ccc(OC(F)(F)F)cc2)cc(NC(=O)C2CC2)n1 [Example I-145] | 4.90 | 100 | 100 | 100 | 100 | 4.72
9 | O=C(NC1CCC(C(F)(F)F)CC1)c1cc(-c2ccc(OC(F)(F)F)cc2)cc(NC(=O)C2CC2)n1 (stereo not shown) [Example I-146] | 4.77 | 100 | – | 83 | – | 4.60
10 | CC1(C(=O)Nc2cc(-c3ccc(OC(F)(F)F)cc3)cc(C(=O)NCc3ccc(C#N)cc3)n2)CC1 [Example I-147] | 4.33 | 100 | 100 | 100 | 100 | –
11 | N#Cc1ccc(CNC(=O)c2cc(-c3ccc(OC(F)(F)C(F)F)cc3)cc(NC(=O)C3CC3)n2)cc1 [Example I-153] | 3.60 | 100 | 100 | 100 | 100 | 3.48
12 | N#CCCCCNC(=O)c1cc(-c2ccc(OC(F)(F)F)cc2)cc(NC(=O)C2CC2)n1 [Example I-157] | 3.38 | 100 | 100 | 83 | – | 3.26
13 | N#CC1CCC(CNC(=O)c2cc(-c3ccc(OC(F)(F)F)cc3)cc(NC(=O)C3CC3)n2)CC1 (stereo not shown) [Example I-161] | 3.87 | 100 | 100 | 100 | 83 | 3.74
